Test: Particle size analysis of micronized progesterone API (Beckman Device, ULM)
Assay type: physicochemical
Conditions: sample API, Fraunhofer optical model
Text: Particle size may be determined in any suitable manner. For example, a Beckman Coulter LS 13 320 Laser Diffraction Particle Size Analyzer (the “Beckman Device”) may be used to determine particle size. As described above, particle size may be represented by various metrics, for example, through an X50 particle size, and/or X90 particle size, or similar descriptions of particle size.
The Beckman Device may be used with various modules for introducing a sample for analysis. The Beckman Device may be used with the LS 13 320 Universal Liquid Module (“ULM”). The ULM is capable of suspending samples in the size range of 0.017 μm to 2000 μm. The ULM is a liquid based module that allows for delivery of the sample to the sensing zone. The ULM recirculates the sample through the Beckman Device. The ULM comprises two hoses, one for fluid delivery and another for waste. The total volume used may be 125 mL or less. A sample mass of from about 1 mg to about 10 g may be used. The ULM may interact with the Beckman Device via pins that fit into slots on the ULM. The ULM may use a variety of suspension fluids, for example, water, butonol, ethanol, chloroform, heptanes, toluene, propanol, COULTER Type 1B Dispersant (“Coulter 1B”), and a variety of other suspension fluids. Surfactants may also be used, though pump speed should be adjusted to prevent excessive bubbling. […]

- X25: 1.590 μm
- X75: 7.442 μm
SMILES: CC(=O)[C@H]1CC[C@H]2[C@@H]3CCC4=CC(=O)CC[C@]4(C)[C@H]3CC[C@]12C [Progesterone, progesterone]
